# Reference: the supplement of paper PMC10307832
# Experiments:
# Assay in all cases: relative viability (nuclei count vs DMSO), 5 days (fraction); higher = more cells survive
# [1] = system: 201T
# How it was run: (§1)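 Dosing by pin tool came one day after lung cancer cell lines were seeded in 1536-well plates, using either one drug or a fixed anchor-drug dose plus five library-drug doses (not always all listed) in √10 steps. After 5 days, nuclei were counted on 4× images. Relative viability is treated-well nuclei count divided by vehicle-well nuclei count, and values are medians of duplicate plates.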
# [2] = system: COR-L 105
# How it was run: as §1
# [3] = system: ChaGo-K-1
# How it was run: as §1
# [4] = system: EPLC-272H
# How it was run: as §1
# [5] = system: H3255
# How it was run: as §1
# [6] = system: HCC-78
# How it was run: as §1
# [7] = system: HCC-827
# How it was run: as §1
# [8] = system: LC-2-ad
# How it was run: as §1
# [9] = system: LCLC-97TM1
# How it was run: as §1
# [10] = system: NCI-H1666
# How it was run: as §1
# [11] = system: NCI-H1915
# How it was run: as §1
# [12] = system: NCI-H2087
# How it was run: as §1
smiles,measurement,setting,value
NC(=O)Nc1cc(-c2cccc(F)c2)sc1C(=O)N[C@H]1CCCNC1 [AZD7762] + Nc1nc2[nH]cc(CCc3ccc(C(=O)N[C@@H](CCC(=O)O)C(=O)O)cc3)c2c(=O)[nH]1 [Pemetrexed] (partner 0.2 µM),relative viability,[1]; first compound 0.01 µM,0.34
same,relative viability,[1]; first compound 0.03162 µM,0.293
same,relative viability,[1]; first compound 0.1 µM,0.307
same,relative viability,[1]; first compound 0.3162 µM,0.284
same,relative viability,[1]; first compound 1 µM,0.296
same,relative viability,[2]; first compound 0.01 µM,0.961
same,relative viability,[2]; first compound 0.03162 µM,1.11
same,relative viability,[2]; first compound 0.1 µM,0.913
same,relative viability,[2]; first compound 0.3162 µM,0.87
same,relative viability,[2]; first compound 1 µM,0.579
same,relative viability,[3]; first compound 0.01 µM,0.26
same,relative viability,[3]; first compound 0.03162 µM,0.267
same,relative viability,[3]; first compound 0.1 µM,0.259
same,relative viability,[3]; first compound 0.3162 µM,0.243
same,relative viability,[3]; first compound 1 µM,0.256
same,relative viability,[4]; first compound 0.01 µM,0.321
same,relative viability,[4]; first compound 0.03162 µM,0.214
same,relative viability,[4]; first compound 0.1 µM,0.174
same,relative viability,[4]; first compound 0.3162 µM,0.12
same,relative viability,[4]; first compound 1 µM,0.0715
same,relative viability,[5]; first compound 0.01 µM,0.549
same,relative viability,[5]; first compound 0.03162 µM,0.61
same,relative viability,[5]; first compound 0.1 µM,0.573
same,relative viability,[5]; first compound 0.3162 µM,0.531
same,relative viability,[5]; first compound 1 µM,0.477
same,relative viability,[6]; first compound 0.01 µM,0.927
same,relative viability,[6]; first compound 0.03162 µM,0.903
same,relative viability,[6]; first compound 0.1 µM,0.895
same,relative viability,[6]; first compound 0.3162 µM,0.895
same,relative viability,[6]; first compound 1 µM,0.889
same,relative viability,[7]; first compound 0.01 µM,0.301
same,relative viability,[7]; first compound 0.03162 µM,0.257
same,relative viability,[7]; first compound 0.1 µM,0.211
same,relative viability,[7]; first compound 0.3162 µM,0.192
same,relative viability,[7]; first compound 1 µM,0.148
same,relative viability,[8]; first compound 0.01 µM,0.3
same,relative viability,[8]; first compound 0.03162 µM,0.277
same,relative viability,[8]; first compound 0.1 µM,0.277
same,relative viability,[8]; first compound 0.3162 µM,0.229
same,relative viability,[8]; first compound 1 µM,0.241
same,relative viability,[9]; first compound 0.01 µM,0.187
same,relative viability,[9]; first compound 0.03162 µM,0.165
same,relative viability,[9]; first compound 0.1 µM,0.17
same,relative viability,[9]; first compound 0.3162 µM,0.139
same,relative viability,[9]; first compound 1 µM,0.146
same,relative viability,[10]; first compound 0.01 µM,0.851
same,relative viability,[10]; first compound 0.03162 µM,0.838
same,relative viability,[10]; first compound 0.1 µM,0.739
same,relative viability,[10]; first compound 0.3162 µM,0.594
same,relative viability,[10]; first compound 1 µM,0.719
same,relative viability,[11]; first compound 0.01 µM,0.434
same,relative viability,[11]; first compound 0.03162 µM,0.412
same,relative viability,[11]; first compound 0.1 µM,0.346
same,relative viability,[11]; first compound 0.3162 µM,0.264
same,relative viability,[11]; first compound 1 µM,0.217
same,relative viability,[12]; first compound 0.01 µM,0.718
same,relative viability,[12]; first compound 0.03162 µM,0.654
